Assay results as given in patent US8263754B2, “Amphiphiles for protein solubilization and stabilization” (Wisconsin Alumni Research Foundation, priority 2008, dated 2012).
Entries after “also recorded” stand apart in the source; their conditions may differ. Like-named read-outs stand apart in the source and are kept apart here.

Columns and labels:
[1] = tested on: LHI-RC superassembly in Rhodobacter capsulatus membranes; conditions: solubilized protein, optical spectroscopy
Description: These complexes, normally embedded in the bacterial membrane, are highly pigmented and several outcomes from an assay are possible, including no degradation, partial degradation or complete degradation upon solubilization, or no solubilization. Thus, graded comparative evaluations could be obtained for a set of candidates such as the amphiphiles described herein.
In the engineered strain of R. capsulatus employed, the photosynthetic unit was comprised of a very labile LHI complex and a more resilient RC complex. An ideal amphiphile for this system will extract the intact LHI-RC superassembly from a bacterial membrane preparation and maintain the natural interactions among the components. Amphiphiles with a more disruptive effect will dissociate and denature LHI, leaving only intact RC, and even harsher amphiphiles will cause RC degradation. Each of these various outcomes can be assessed unambiguously via optical spectroscopy (FIG. 2 inset).
Measurements. The starting material for the screening protocols and stability measurements included specialized photosynthetic membranes from an engineered strain of Rhodobacter (R.) capsulatus, U43[pUHTM86Bgl]
To begin the solubilization and purification process, frozen aliquots of R. capsulatus membranes were thawed, homogenized, and equilibrated to 32° C. for 30 minutes. […] For subsequent experiments, the amphiphiles were evaluated at 10-fold CMC during the solubilization step.
The membrane samples were allowed to incubate with the amphiphile for 30 minutes at 32° C. The solubilized material was then separated from the membrane debris in an ultracentrifuge at 315,000×g at 4° C. for 30 minutes. […] After a UV-Vis-nearIR absorption spectrum was recorded, the resuspended pellet was discarded. […] The tubes were then incubated and inverted for 1 hour at 4° C.
Once binding was complete, samples were loaded onto resin-retaining spin columns (e.g., emptied His Spin Trap™ columns; GE Healthcare). The columns were then inserted into a 2 mL microcentrifuge tube to retain the filtered solution during centrifugation. […] Finally, protein was eluted into a fresh microcentrifuge tube with three 0.2 mL elution buffer aliquots (this buffer was identical to binding buffer with the addition of 1 M imidazole).
The R. capsulatus LHI-RC complexes extracted and purified by this procedure contain large numbers of cofactors that have absorptions at distinct wavelengths, and each component of the LHI-RC superassembly has a different inherent stability outside the lipid bilayer. The solubilization protocol outlined above therefore provides a multifaceted assessment of the efficacy of conventional detergents and novel amphiphiles. UV-Vis absorption spectroscopy data obtained at various stages of the protocol allow one to determine which protein components have degraded at these stages. […] The disruption potential was measured as the yield of superassembly extracted during solubilization (or, alternatively and more precisely, as the absence of superassembly in the pellet from the spin following solubilization).
The stabilizing propensity was determined from the spectra of the purified protein. An amphiphile was judged to be mild and stabilizing if it allowed the purification of fully intact LHI-RC superassembly (dominant absorption band at 875 nm). […] An amphiphile was judged to be of intermediate strength if it allowed for the purification of fully intact RC with damaged or missing LHI (dominant absorption at 800 nm with a shoulder at 875 nm; damaged LHI still bound to RC absorbs at 760 nm).
First, solubilization (illustrated in “STEP 1” of FIG. 12) denotes the ability of a surfactant to penetrate, integrate and disrupt a lipid bilayer.

[2] = target: bovine rhodopsin (Bos taurus, UniProt P02699); conditions: cited from earlier work
[3] = Critical micelle concentration (CMC) by dye solubilization (Orange OT or DPH); format: physicochemical; conditions: for critical micelle concentration (CMC): aqueous solubilization of Orange OT; for CMC / CMC (%): determined by DPH (diphenylhexatriene) or Orange OT
Description: Aqueous solubilization of Orange OT was used to determine critical micelle concentrations (CMC). […] Facile self-association of these amphiphiles under these conditions may be hindered by the hydrophilicity and/or steric bulk of the triglucoside and dimaltoside headgroups.
The Critical Micelle Concentrations (CMCs) of compounds of the invention can be determined by standard techniques known to those of skill in the art. For example, CMCs of the carbohydrate-based amphiphiles described herein can be determined by monitoring uptake of a dye (e.g., Orange OT or 1,6-diphenylhexatriene) with increasing detergent concentration, monitored by UV-visible or fluorescence spectroscopy.

[4] = target: T1, bacteriorhodopsin (bR) (Halobacterium salinarum, UniProt P02945); conditions: cited from earlier work
T1 sequence (P02945 14-262): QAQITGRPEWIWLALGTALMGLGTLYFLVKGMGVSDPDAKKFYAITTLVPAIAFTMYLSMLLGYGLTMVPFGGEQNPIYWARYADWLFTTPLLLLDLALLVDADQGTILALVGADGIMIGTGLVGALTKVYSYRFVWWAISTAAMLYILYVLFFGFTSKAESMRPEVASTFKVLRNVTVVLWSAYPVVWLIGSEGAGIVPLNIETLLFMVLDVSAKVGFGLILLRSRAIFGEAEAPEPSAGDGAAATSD

[5] = tested on: T2, LHI-RC superassembly; test: Stability over time of solubilized, purified LHI-RC superassembly (A875/A680 ratio); design: species or system Rhodobacter capsulatus; conditions: room temperature, 875 nm/680 nm absorption ratio over two to three weeks
T2 construct: Starting with protein complexes in their native lipid bilayer; made in house; host or cells: Rhodobacter capsulatus U43[pUHTM86Bgl], intracytoplasmic membranes (strain lacks LHII)
Procedure: FIG. 3. To monitor the ability of micelles of DDM, TPA-2, and MPA-2(C12) to stabilize membrane protein complexes, spectra of the protein purified by each detergent were recorded as a function of time. The initial spectrum (t=0) was acquired directly after elution of the protein from affinity chromatography. The integrity of the LHI-RC superassembly solubilized by these relatively mild detergents was monitored quantitatively from a scatter-corrected absorbance ratio (A875/A680). The ratio of a sample of completely folded and functional supperassembly is >14.5, and this ratio declines dramatically as the multi-subunit complex disassembles and denatures.
Stability was monitored by following the 875 nm/680 nm absorption ratio over a two to three weeks (absorption at 680 nm arises from oxidation of bacteriochlorophyll that has dissociated from LHI protein).
Similar criteria and protocols were used to judge the ability of amphiphiles to maintain solubilized and purified superassembly for extended periods. In this case, UV Vis-nearIR spectra were recorded at regular intervals. The degradation of the material could be monitored with the A875/A680 absorbance ratio, which decreased with time and sample integrity as the dominant 875 nm absorption of intact LHI disappeared and a 680 nm band appeared, indicating the presence of unbound, oxidized cofactors.

Row | SMILES | extraction of LHI-RC superassembly from R. capsulatus membranes [1] | solubilization of bovine rhodopsin [2] | stability of resulting protein solution (bovine rhodopsin) [2] | critical micelle concentration (CMC) [3] | CMC [3] | CMC (%) [3] | solubilization of bacteriorhodopsin (bR) [4] | stability of resulting protein solution (bR) [4] | stability of solubilized LHI-RC superassembly [5] | extraction of LHI-RC superassembly from R. capsulatus membranes ([1]; listed as TPA-2-S)
1 | CCCCC(CCCC)(CC(=O)NCCC[N+](C)(C)[O-])c1ccccc1 [TPA0, reference compound] | too harsh to be useful for the preparation of intact superassembly | effectively solubilized | stable for several weeks | 5.5 mM | 4.4 mM | 0.16% | effectively solubilized | stable for several weeks | – | –
2 | CCCCC(CCCC)(CC(=O)NC(CO[C@H]1OC(CO)[C@H](O)C(O)C1O)CO[C@H]1OC(CO)[C@H](O)C(O)C1O)C1CCCCC1 (stereo partly shown) [TPA21] | – | – | – | 1.8 mM | 1.8 mM | 0.12% | – | – | more stabilizing than those of TPA-2 | as good as or better than TPA-2 at extracting membrane proteins; also recorded: at least as effective as TPA-2, if not superior; also recorded: equal to or superior to TPA-2 at extracting membrane proteins
